Test results from patent US11051515B2, “3-acyl-benzamides and their use as herbicides” (Bayer Aktiengesellschaft, priority 2017, dated 2021).

Experiments:
[1] = tested on: VERPE; test: Pre-emergence action against VERPE; format: in vivo, Veronica persica; conditions: Dosage 320 g/ha, pre-emergence
Outline: (§1)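 Seeds sown in sandy loam in wood-fiber pots and covered with soil. Greenhouse growth; visual damage scored after 3 weeks versus untreated controls (100% = dead, 0% = like control).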

[2] = tested on: CYPES; test: Pre-emergence action against CYPES; format: in vivo, Cyperus esculentus; conditions: pre-emergence, dosage 320 g/ha, scored visually after 3 weeks vs untreated controls
Outline: as §1

[3] = tested on: MATIN; test: Pre-emergence action against MATIN; format: in vivo, Matricaria inodora; conditions: Dosage 320 g/ha, pre-emergence
Outline: as §1

[4] = tested on: LOLMU; test: Pre-emergence action against LOLMU; format: in vivo, Lolium multiflorum; conditions: dosage 320 g/ha, scored visually after 3 weeks vs untreated controls
Text: Seeds of monocotyledonous and dicotyledonous weed plants and crop plants are laid out in sandy loam soil in wood-fiber pots and covered with soil. The compounds of the invention, formulated in the form of wettable powders (WP) or as emulsion concentrates (EC), are then applied to the surface of the covering soil in the form of an aqueous suspension or emulsion at a water application rate equating to […], with addition of 0.2% wetting agent. After the treatment, the pots are placed in a greenhouse and kept under good growth conditions for the trial plants. The damage to the test plants is scored visually after a test period of 3 weeks by comparison with untreated controls (herbicidal activity in percent (%): 100% activity=the plants have died, 0% activity=like control plants).

[5] = tested on: ALOMY; test: Pre-emergence action against ALOMY; format: in vivo, Alopecurus myosuroides; conditions: dosage 320 g/ha, pre-emergence, scored visually after 3 weeks vs untreated controls, 100% = plants have died, 0% = like control plants
Outline: as §1

[6] = tested on: STEME; test: Post-emergence action against STEME; format: in vivo, Stellaria media; conditions: post-emergence, dosage 80 g/ha
Outline: (§2)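 Post-emergence foliar spray on greenhouse plants at the one-leaf stage, using wettable-powder or emulsion-concentrate formulations in water (600 to […], plus 0.2% wetting agent). Damage scored by eye roughly 3 weeks later against untreated plants: 0% = like control, 100% = dead.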

[7] = tested on: POLCO; test: Pre-emergence action against POLCO; format: in vivo, Polygonum convolvulus; conditions: Dosage 320 g/ha, pre-emergence
Outline: as §1

[8] = tested on: PHBPU; test: Post-emergence action against PHBPU; format: in vivo, Pharbitis purpurea; conditions: post-emergence, dosage 80 g/ha
Outline: as §2

[9] = tested on: VERPE; test: Post-emergence action against VERPE; format: in vivo, Veronica persica; conditions: dosage 80 g/ha
Outline: as §2

[10] = tested on: MATIN; test: Post-emergence action against MATIN; format: in vivo, Matricaria inodora; conditions: post-emergence, dosage 80 g/ha, visual assessment about 3 weeks after treatment vs untreated controls
Outline: as §2

[11] = tested on: ABUTH; test: Pre-emergence action against ABUTH; format: in vivo, Abutilon theophrasti; conditions: pre-emergence, dosage 320 g/ha, scored visually after 3 weeks vs untreated controls
Outline: as §1

[12] = tested on: SETVI; test: Post-emergence action against SETVI; format: in vivo, Setaria viridis; conditions: post-emergence, dosage 80 g/ha, visual assessment about 3 weeks after treatment vs untreated controls
Outline: as §2

[13] = tested on: CYPES; test: Post-emergence action against CYPES; format: in vivo, Cyperus esculentus; conditions: post-emergence, dosage 80 g/ha, visual assessment about 3 weeks after treatment vs untreated controls
Outline: as §2

[14] = tested on: ECHCG; test: Pre-emergence action against ECHCG; format: in vivo, Echinochloa crus-galli; conditions: pre-emergence, dosage 320 g/ha, scored visually after 3 weeks vs untreated controls
Outline: as §1

[15] = tested on: VIOTR; test: Post-emergence action against VIOTR; format: in vivo, Viola tricolor; conditions: post-emergence, dosage 80 g/ha
Outline: as §2

[16] = tested on: AVEFA; test: Pre-emergence action against AVEFA; format: in vivo, Avena fatua; conditions: dosage 320 g/ha, scored visually after 3 weeks vs untreated controls
Outline: as §1

[17] = tested on: ABUTH; test: Post-emergence action against ABUTH; format: in vivo, Abutilon theophrasti; conditions: post-emergence, dosage 80 g/ha, visual assessment about 3 weeks after treatment vs untreated controls
Outline: as §2

[18] = tested on: ECHCG; test: Post-emergence action against ECHCG; format: in vivo, Echinochloa crus-galli; conditions: post-emergence, dosage 80 g/ha, visual assessment about 3 weeks after treatment vs untreated controls
Outline: as §2

[19] = tested on: AMARE; test: Post-emergence action against AMARE; format: in vivo, Amaranthus retroflexus; conditions: post-emergence, dosage 80 g/ha, visual assessment about 3 weeks after treatment vs untreated controls
Outline: as §2

[20] = tested on: STEME; test: Pre-emergence action against STEME; format: in vivo, Stellaria media; conditions: Dosage 320 g/ha, pre-emergence
Outline: as §1

[21] = tested on: VIOTR; test: Pre-emergence action against VIOTR; format: in vivo, Viola tricolor; conditions: Dosage 320 g/ha, pre-emergence
Outline: as §1

[22] = tested on: AMARE; test: Pre-emergence action against AMARE; format: in vivo, Amaranthus retroflexus; conditions: pre-emergence, dosage 320 g/ha, scored visually after 3 weeks vs untreated controls
Outline: as §1

[23] = tested on: POLCO; test: Post-emergence action against POLCO; format: in vivo, Polygonum convolvulus; conditions: post-emergence, dosage 80 g/ha
Outline: as §2

[24] = tested on: SETVI; test: Pre-emergence action against SETVI; format: in vivo, Setaria viridis; conditions: pre-emergence, dosage 320 g/ha, scored visually after 3 weeks vs untreated controls
Outline: as §1

Molecule `COc1c(C(=O)Nc2nnnn2C)ccc(C(F)(F)F)c1C(C)=O` [1-48] has a pest or weed control at 320 g/ha ([1]; Veronica persica, 504 h) of 100%, a pest or weed control at 320 g/ha ([2]; Cyperus esculentus, 504 h, read-out: Pre-emergence action against CYPES (herbicidal activity)) of 90% and a pest or weed control at 320 g/ha ([3]; Tripleurospermum inodorum, 504 h) of 100%. It also gave a pest or weed control at 320 g/ha ([4]; Lolium multiflorum, 504 h, read-out: Pre-emergence action against LOLMU (herbicidal activity)) of 80%, a pest or weed control at 320 g/ha ([5]; Alopecurus myosuroides, 504 h, read-out: Pre-emergence action against ALOMY (herbicidal activity in percent)) of 90% and a pest or weed control at 80 g/ha ([6]; Stellaria media, 504 h) of 100%. It also gave a pest or weed control at 320 g/ha ([7]; Fallopia convolvulus, 504 h) of 90%, a pest or weed control at 80 g/ha ([8]; Ipomoea purpurea, 504 h) of 90% and a pest or weed control at 80 g/ha ([9]; Veronica persica, 504 h) of 80%. The pest or weed control at 80 g/ha ([10]; Tripleurospermum inodorum, 504 h, read-out: Post-emergence action against MATIN (herbicidal action in percent)) was 100%, the pest or weed control at 320 g/ha ([11]; Abutilon theophrasti, 504 h, read-out: Pre-emergence action against ABUTH (herbicidal activity)) was 100% and the pest or weed control at 80 g/ha ([12]; Setaria viridis, 504 h, read-out: Post-emergence action against SETVI (herbicidal action in percent)) was 80%. The pest or weed control at 80 g/ha ([13]; Cyperus esculentus, 504 h, read-out: Post-emergence action against CYPES (herbicidal action in percent)) was 100%, the pest or weed control at 320 g/ha ([14]; Echinochloa crus-galli, 504 h, read-out: Pre-emergence action against ECHCG (herbicidal activity)) was 100% and the pest or weed control at 80 g/ha ([15]; Viola tricolor, 504 h) was 100%. For the same molecule, the pest or weed control at 320 g/ha ([16]; Avena fatua, 504 h, read-out: Pre-emergence action against AVEFA (herbicidal activity)) was 90%, the pest or weed control at 80 g/ha ([17]; Abutilon theophrasti, 504 h, read-out: Post-emergence action against ABUTH (herbicidal action in percent)) was 100% and the pest or weed control at 80 g/ha ([18]; Echinochloa crus-galli, 504 h, read-out: Post-emergence action against ECHCG (herbicidal action in percent)) was 90%. The pest or weed control at 80 g/ha ([19]; Amaranthus retroflexus, 504 h, read-out: Post-emergence action against AMARE (herbicidal action in percent)) was 100%, the pest or weed control at 320 g/ha ([20]; Stellaria media, 504 h) was 90% and the pest or weed control at 320 g/ha ([21]; Viola tricolor, 504 h) was 100%. It also gave a pest or weed control at 320 g/ha ([22]; Amaranthus retroflexus, 504 h, read-out: Pre-emergence action against AMARE (herbicidal activity)) of 100%, a pest or weed control at 80 g/ha ([23]; Fallopia convolvulus, 504 h) of 90% and a pest or weed control at 320 g/ha ([24]; Setaria viridis, 504 h, read-out: SETVI (Table B8, pre-emergence herbicidal activity)) of 100%.

For `CCn1nnnc1NC(=O)c1ccc(C(F)(F)F)c(C(C)=O)c1OC` [2-48], the “Pre-emergence action against VERPE” value [1] was 100%, the “Pre-emergence action against CYPES (herbicidal activity)” value [2] was 100% and the “Pre-emergence action against MATIN” value [3] was 100%. For the same molecule, the “Pre-emergence action against LOLMU (herbicidal activity)” value [4] was 80%, the “Pre-emergence action against ALOMY (herbicidal activity in percent)” value [5] was 90% and the “Post-emergence action against STEME” value [6] was 100. The “Pre-emergence action against POLCO” value [7] was 90%, the “Post-emergence action against PHBPU” value [8] was 100 and the “Post-emergence action against VERPE” value [9] was 80. The “Post-emergence action against MATIN (herbicidal action in percent)” value [10] was 100%, the “Pre-emergence action against ABUTH (herbicidal activity)” value [11] was 100% and the “Post-emergence action against SETVI (herbicidal action in percent)” value [12] was 80%. For the same molecule, the “Post-emergence action against CYPES (herbicidal action in percent)” value [13] was 100%, the “Pre-emergence action against ECHCG (herbicidal activity)” value [14] was 100% and the “Post-emergence action against VIOTR” value [15] was 100. The “Post-emergence action against ABUTH (herbicidal action in percent)” value [17] was 100%, the “Post-emergence action against ECHCG (herbicidal action in percent)” value [18] was 90% and the “Post-emergence action against AMARE (herbicidal action in percent)” value [19] was 90%. For the same molecule, the “Pre-emergence action against STEME” value [20] was 90%, the “Pre-emergence action against VIOTR” value [21] was 100% and the “Pre-emergence action against AMARE (herbicidal activity)” value [22] was 100%. The “Post-emergence action against POLCO” value [23] was 80 and the “SETVI (Table B8, pre-emergence herbicidal activity)” value [24] was 100%.

`CCC(=O)c1c(Cl)ccc(C(=O)Nc2nnnn2CC)c1Cl` [2-115] was tested, and the “Pre-emergence action against VERPE” value [1] was 90%, the “Pre-emergence action against CYPES (herbicidal activity)” value [2] was 90% and the “Pre-emergence action against MATIN” value [3] was 100%. The “Pre-emergence action against LOLMU (herbicidal activity)” value [4] was 100%, the “Pre-emergence action against ALOMY (herbicidal activity in percent)” value [5] was 100% and the “Post-emergence action against STEME” value [6] was 100. For the same molecule, the “Pre-emergence action against POLCO” value [7] was 80%, the “Post-emergence action against PHBPU” value [8] was 90 and the “Post-emergence action against MATIN (herbicidal action in percent)” value [10] was 100%. For the same molecule, the “Pre-emergence action against ABUTH (herbicidal activity)” value [11] was 100%, the “Post-emergence action against SETVI (herbicidal action in percent)” value [12] was 90% and the “Post-emergence action against CYPES (herbicidal action in percent)” value [13] was 80%. For the same molecule, the “Pre-emergence action against ECHCG (herbicidal activity)” value [14] was 100%, the “Post-emergence action against VIOTR” value [15] was 100 and the “Pre-emergence action against AVEFA (herbicidal activity)” value [16] was 90%. For the same molecule, the “Post-emergence action against ABUTH (herbicidal action in percent)” value [17] was 90%, the “Post-emergence action against ECHCG (herbicidal action in percent)” value [18] was 90% and the “Post-emergence action against AMARE (herbicidal action in percent)” value [19] was 90%. For the same molecule, the “Pre-emergence action against STEME” value [20] was 100%, the “Pre-emergence action against VIOTR” value [21] was 100% and the “Pre-emergence action against AMARE (herbicidal activity)” value [22] was 100%. For the same molecule, the “Post-emergence action against POLCO” value [23] was 100 and the “SETVI (Table B8, pre-emergence herbicidal activity)” value [24] was 90%.
